One series has as its target T1, TRKA (Homo sapiens, UniProt P04629).
T1 construct: purchased Carna bioscience 08-186
The experiment in a line: HTRF KinEASE-TK kinase activity inhibition assay, TRKA. Type of series: biochemical. The conditions noted are these: ATP 100 µM. An excerpt:
(§1) The following method was used to determine the inhibition degrees of the compounds of the present invention on the activity of recombinant human NTRK family kinase in vitro. In this method, HTRF®KinEASE-TK tyrosine kinase kit (article number: 62TK0PEB) of Cisbio company was used, and the principle of the kit was based on time-resolved fluorescence resonance energy transfer (TF-FRET), and the inhibition of the compounds on the activity of the NTRK kinase was reflected by determining a phosphorylation degree of a biotinylated polypeptide substrate mediated by NTRK kinase. For detailed experimental operation, please refer to the kit instruction. Recombinant human wild-type NTRK proteins were purchased from Carna bioscience (the article numbers were TRKA #08-186, TRKB #08-187 and TRKC #08-197 respectively), and recombinant human mutant NTRK proteins were purchased from SignalChem (the article numbers were TRKA G595R #N16-12BG-10, TRKA G667C # N16-12CG-10, and TRKC G623R # N18-12CH-10 respectively).
(§2) The experimental methods were operated according to the steps in the kit instruction, and were briefly described as follows: a test compound was first dissolved in DMSO to prepare a storage solution, and then diluted in gradient with a buffer provided in the kit. A final concentration of the test compound in the reaction system ranged from 1,000 nM to 0.004 nM. An ATP Km value concentration of each NTRK protein was determined by using an ATP solution diluted in gradient (Sangon Biotech (Shanghai) Co., Ltd., A600311). According to the Km value obtained, the ATP concentrations in the reaction system were set as 100 µM for TRKA, 10 µM for TRKB, 50 µM for TRKC, 7 µM for TRKA(G595R), 1 µM for TRKA(G667C) and 100 µM for TRKC(G623R). The reaction was carried out in a 384-well microplate. Firstly, the compound and a certain amount of corresponding NTRK protein were added to the wells and incubated for 5 minutes to 10 minutes at room temperature. Then, the ATP solution and the biotinylated polypeptide substrate solution were added to the reaction solution and incubated with shaking at room temperature for 60 minutes. Then, an anti-phosphorylated tyrosine antibody coupled with a europium compound and streptavidin coupled with modified allophycocyanin XL665 were added to the reaction, and continuously incubated with shaking at room temperature for 1 hour. After incubation, fluorescence intensity values of each well at an excitation wavelength of 304 nm, and emission wavelengths of 620 nm and 665 nM were determined in a TF-FRET mode on a microplate reader. Compared with the fluorescence intensity ratio of a control group (0.1% DMSO), the percentage inhibition rates of the compound at each concentration were calculated, and the IC50 value of the compound was obtained by performing nonlinear regression analysis for logarithmic value of the compound concentration - inhibition rate by GraphPad Prism 5 software, which can be seen in Table 1. Table 1 IC50 data of the compounds of the present invention on TRK enzyme activity inhibition
(In general: TR-FRET usually uses a lanthanide donor and a delayed reading to cut background.)

The next series deals with T2, TRKB (Homo sapiens, UniProt Q16620).
T2 construct: purchased Carna bioscience 08-187
T2 sequence (Q16620 32-822): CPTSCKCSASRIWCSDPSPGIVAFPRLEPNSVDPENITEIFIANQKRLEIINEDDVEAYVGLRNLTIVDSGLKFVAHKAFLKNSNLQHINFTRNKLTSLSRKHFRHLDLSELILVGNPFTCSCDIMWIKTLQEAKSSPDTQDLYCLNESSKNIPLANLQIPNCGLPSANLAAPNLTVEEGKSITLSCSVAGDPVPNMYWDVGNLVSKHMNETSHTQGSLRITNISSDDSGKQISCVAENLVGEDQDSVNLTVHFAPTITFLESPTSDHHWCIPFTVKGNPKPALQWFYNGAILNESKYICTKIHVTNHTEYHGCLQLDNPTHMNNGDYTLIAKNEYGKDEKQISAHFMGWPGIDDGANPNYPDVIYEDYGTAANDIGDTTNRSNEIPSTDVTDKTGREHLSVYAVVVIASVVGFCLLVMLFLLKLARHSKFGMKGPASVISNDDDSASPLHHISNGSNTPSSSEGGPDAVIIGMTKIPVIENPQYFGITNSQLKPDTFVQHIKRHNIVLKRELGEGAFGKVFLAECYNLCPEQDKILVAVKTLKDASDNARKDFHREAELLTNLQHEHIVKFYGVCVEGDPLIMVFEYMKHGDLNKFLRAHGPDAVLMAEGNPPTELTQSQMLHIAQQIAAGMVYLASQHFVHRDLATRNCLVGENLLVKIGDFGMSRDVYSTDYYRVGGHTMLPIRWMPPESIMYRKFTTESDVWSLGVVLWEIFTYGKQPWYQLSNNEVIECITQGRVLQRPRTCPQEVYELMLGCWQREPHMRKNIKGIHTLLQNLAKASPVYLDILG
The experiment in a line: HTRF KinEASE-TK kinase activity inhibition assay, TRKB. Type of series: biochemical. To be noted: ATP 10 µM.
Description: as §1, §2

Another series deals with T3, TRKC (Homo sapiens, UniProt Q16288).
T3 construct: purchased Carna bioscience 08-197
T3 sequence (Q16288 32-839): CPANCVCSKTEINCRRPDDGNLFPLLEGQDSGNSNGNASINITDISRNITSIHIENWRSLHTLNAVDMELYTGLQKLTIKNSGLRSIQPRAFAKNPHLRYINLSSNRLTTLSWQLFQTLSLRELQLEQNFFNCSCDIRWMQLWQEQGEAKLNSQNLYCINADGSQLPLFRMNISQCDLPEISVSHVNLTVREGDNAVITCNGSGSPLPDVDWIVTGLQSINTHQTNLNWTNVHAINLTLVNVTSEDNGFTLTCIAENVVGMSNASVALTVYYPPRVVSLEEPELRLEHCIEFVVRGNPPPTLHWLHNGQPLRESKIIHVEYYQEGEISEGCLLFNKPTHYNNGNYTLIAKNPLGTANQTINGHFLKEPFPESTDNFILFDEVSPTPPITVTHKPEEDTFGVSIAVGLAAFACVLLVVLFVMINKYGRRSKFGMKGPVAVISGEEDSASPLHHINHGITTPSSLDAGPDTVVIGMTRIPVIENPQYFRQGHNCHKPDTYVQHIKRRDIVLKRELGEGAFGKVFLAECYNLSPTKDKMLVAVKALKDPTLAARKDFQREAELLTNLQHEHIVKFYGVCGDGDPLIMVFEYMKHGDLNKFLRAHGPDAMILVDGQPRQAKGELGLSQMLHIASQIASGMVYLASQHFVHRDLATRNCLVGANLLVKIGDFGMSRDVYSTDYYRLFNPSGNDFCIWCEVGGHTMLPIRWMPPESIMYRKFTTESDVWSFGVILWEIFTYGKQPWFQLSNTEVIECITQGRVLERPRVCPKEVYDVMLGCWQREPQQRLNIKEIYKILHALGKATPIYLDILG
The experiment in a line: HTRF KinEASE-TK kinase activity inhibition assay, TRKC. The conditions noted are these: ATP 50 µM. Format: biochemical.
Description: as §1, §2

The target of a further series is T4, TRKA(G595R) (Homo sapiens, UniProt P04629, G595R).
T4 construct: purchased SignalChem N16-12BG-10
T4 sequence (P04629 33-796 G595R): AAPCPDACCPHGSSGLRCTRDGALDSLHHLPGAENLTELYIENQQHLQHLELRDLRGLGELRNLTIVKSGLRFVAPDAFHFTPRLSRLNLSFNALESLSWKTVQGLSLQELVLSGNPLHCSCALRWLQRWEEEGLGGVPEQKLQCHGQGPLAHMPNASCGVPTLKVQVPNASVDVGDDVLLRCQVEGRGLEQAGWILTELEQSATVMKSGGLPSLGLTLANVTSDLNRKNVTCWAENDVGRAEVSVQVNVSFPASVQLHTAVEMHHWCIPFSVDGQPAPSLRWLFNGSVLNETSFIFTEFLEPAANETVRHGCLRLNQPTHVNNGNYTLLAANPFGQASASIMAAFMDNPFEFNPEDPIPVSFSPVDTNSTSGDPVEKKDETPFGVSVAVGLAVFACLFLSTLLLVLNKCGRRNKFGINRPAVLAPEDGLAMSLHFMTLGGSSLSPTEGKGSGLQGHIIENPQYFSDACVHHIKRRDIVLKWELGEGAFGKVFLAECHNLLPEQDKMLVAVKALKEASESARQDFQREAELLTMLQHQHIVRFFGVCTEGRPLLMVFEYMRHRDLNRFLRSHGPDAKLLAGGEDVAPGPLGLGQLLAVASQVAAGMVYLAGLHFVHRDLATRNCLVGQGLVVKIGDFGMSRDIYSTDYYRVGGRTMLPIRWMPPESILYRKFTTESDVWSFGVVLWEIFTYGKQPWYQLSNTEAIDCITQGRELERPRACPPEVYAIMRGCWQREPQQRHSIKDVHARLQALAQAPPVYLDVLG
The experiment in a line: HTRF KinEASE-TK kinase activity inhibition assay, TRKA(G595R). Format: biochemical. The conditions noted are these: ATP 7 µM.
Description: as §1, §2

Another series has as its target T5, TRKA(G667C) (Homo sapiens, UniProt P04629, G667C).
T5 construct: purchased SignalChem N16-12CG-10
The experiment in a line: HTRF KinEASE-TK kinase activity inhibition assay, TRKA(G667C). Type of series: biochemical. The conditions noted are these: ATP 1 µM.
Description: as §1, §2

Series [1] in a line: Pharmacokinetic study on ICR mice (plasma, LC-MS/MS). Format: in vivo. The conditions noted are these: male, mouse; for AUC(0-inf): read-out: Area under curve AUC0-∞; for half-life: read-out: Half-life T1/2(h) (converted). The procedure: ICR mice, male, 29.0 g to 33.8g, purchased from Beijing Charles River Laboratory Animal Technology Co., Ltd.
Intravenous injection group: an appropriate amount of drug was weighed, and added with mixed solvent (DMA: 30% Solutol HS-15: Saline = 10: 10: 80 (v/v/v)) to prepare the drug with a final concentration of 0.2 mg/mL.
Oral gavage administration group: an appropriate amount of drug was weighed, added with an appropriate amount of sodium carboxymethyl cellulose (CMC-Na, containing 0.5% Tween 80), vortex shaked, and ultrasonically prepared into […] suspension.
For ICR mice, each compound to be tested was divided into an intravenous injection group (9 mice in each group) and an intragastric group (9 mice in each group). The ICR mice were fasted overnight and then administered by orbital intravenous injection (administration dose of 1 mg/kg, and administration volume of 5 mL/kg) and administered by intragastric injection (administration dose of 5 mg/kg, and administration volume of 10 mL/kg), and ate 4 hours after administration.
About 0.2 mL of blood was collected via jugular vein before administration and 0.083 hour, 0.25 hour, 0.5 hour, 1 hour, 2 hours, 4 hours, 8 hours, 12 hours and 24 hours after administration, and heparin sodium was used for anticoagulation. The collected blood samples were placed on ice, and plasma was separated by centrifugation (centrifugation condition: 1500 g, 10 minutes). The collected plasma was stored at-40°C to -20°C before analysis.
LC-MS/MS was used to determine the contents of different compounds to be tested in mouse plasma after intravenous injection and intragastric administration.
The pharmacokinetic parameters of the compounds of the present invention and the positive control can be seen in Table 8. Table 8 Results of pharmacokinetic parameters

[2] abbreviates: intravenous, 1 mg/kg, injection.

The results in this text go back to patent EP3974434B1, “MACROLIDE DERIVATIVES, PREPARATION METHOD AND APPLICATION THEREOF” (Zhejiang Hisun Pharmaceutical Co., Ltd., priority 2019, dated 2020).

A word on the IC50: it is the concentration needed to halve the response being measured. Low values mean inhibition by little substance, high ones a need for much substance. As a reminder, the bioavailability is the share of a dose that reaches the circulation, judged against a reference dose that is usually intravenous. Usually clearance stands for a measure of how efficiently the substance is removed, as volume per time.

Each structure is given as a SMILES string. Read-outs that look alike come from different tables or passages of the source.

T5 sequence (P04629 33-796 G667C): as the sequence (P04629 33-796 G595R) above, with R563G, G635C counted along it
T1 sequence (P04629 33-796): as the sequence (P04629 33-796 G595R) above, with R563G counted along it

In the case of `C[C@H]1Nc2ccn3ncc(c3n2)C(=O)NCC2Cc3cc(F)cc1c3O2` (stereo partly drawn) [Example 1, (3R)-6-fluoro-3-methyl-10-oxa-2,13,17,18,21-pent aazapentacyclo[13.5.2.1^8,11.0^4,9.0^18,22]tricosa-1(21), 4,6,8, 15(22),16, 19-heptaen-14-one], the IC50 came to 1.66 nM on TRKA, 0.29 nM on TRKB, 0.5 nM against TRKC and 11.3 nM against TRKA(G595R).

Consider `C[C@H]1Nc2ccn3ncc(c3n2)C(=O)NCC[C@H]2Cc3cc(F)cc1c3O2` [Example 3, (3R,11R)-6-fluoro-3-methyl-10-oxa-2,14,18,19,22-pentaazapentacyclo[14.5.2.1^8,11.0^4,9.0^19,23]tetracosa-1(22),4,6,8,16(23),17,20-heptaen-15-one], for which the IC50 against TRKA was 1.7 nM; against TRKB, 0.33 nM; at TRKC, 0.47 nM; on TRKA(G595R), 3.31 nM.

For the compound `C[C@H]1Nc2ccn3ncc(c3n2)C(=O)NCCC2=Cc3cc(F)cc1c3O2` [Example 6, (3R)-6-fluoro-3-methyl-10-oxa-2,14,18,19,22-pent aazapentacyclo[14.5.2.1^8,11.0^4,9.0^19,23]tetracosa-1(2 2),4,6,8,11(24),16(23),17,20-octaen-15-one], the results for the IC50 against TRKA, against TRKB and against TRKA(G595R) were 1.05 nM, 0.34 nM and 11.3 nM, respectively.

In the case of `C[C@H]1Nc2ccn3ncc(c3n2)C(=O)NC[C@]2(C)Cc3cc(F)c(F)c1c3O2` [Example 11, (3R,11S)-5,6-difluoro-3,11-dimethyl-10-oxa-2,13,1 7,18,21-pentaazapentacyclo[13.5.2.1^8,11.0^4,9.0^18,22]t ricosa-1(21),4,6,8,15(22),16,19-heptaen-14-one], the IC50 against TRKA worked out at 4.5 nM; against TRKC, 0.63 nM.

`COC[C@@]12CNC(=O)c3cnn4ccc(nc34)N[C@H](C)c3cc(F)cc(c3O1)C2` [Example 15, (3R,11R)-6-fluoro-11-(methoxymethyl)-3-methyl-10-oxa-2,13,17,18,21-pentaazapentacyclo[13.5.2.1 ^8,11.0^4,9.0^18,22]tricosa-1(21),4,6,8,15(22),16,19-hept aen-14-one]: the IC50 against TRKA worked out at 2.8 nM; on TRKC, 0.37 nM.

Take `C[C@H]1Nc2ccn3ncc(c3n2)C(=O)NCC2(CF)Cc3cc(F)cc1c3O2` (stereo partly drawn) [Example 18, (3R)-6-fluoro-11-(fluoromethyl)-3-methyl-10-oxa-2,13,17,18,21-pentaazapentacyclo[13.5.2.1^8,11.0^4,9. 0^18,22]tricosa-1(21),4,6,8,15(22),16,19-heptaen-14-one]: the IC50 against TRKA was 0.63 nM; against TRKB, 0.17 nM; at TRKC, 1.37 nM; against TRKA(G595R), 3.9 nM; against TRKA(G667C), 6.11 nM.

Take `C[C@H]1Nc2ccn3ncc(c3n2)C(=O)NCC2(CO)Cc3cc(F)cc1c3O2` (stereo partly drawn) [Example 19, (3R)-6-fluoro-11-(hydroxymethyl)-3-methyl-10-ox a-2,13,17,18,21-pentaazapentacyclo[13.5.2.1^8,11.0^4, 9.0^18,22]tricosa-1(21),4,6,8,15(22),16,19-heptaen-14-one]: the IC50 against TRKA amounted to 3.4 nM; at TRKB it was 0.25 nM; at TRKC, 1.16 nM; against TRKA(G595R), 19.3 nM.

On to `C[C@H]1Nc2ccn3ncc(c3n2)C(=O)NCC[C@@]2(C)Cc3cc(F)cc1c3O2` [Example 20, (3R,11R)-6-fluoro-3,11-dimethyl-10-oxa-2,14,18,1 9,22-pentaazapentacyclo[14.5.2.1^8,11.0^4,9.0^19,23]tetra cosa-1(22),4,6,8,16(23),17,20-heptaen-15-one], for which the IC50 worked out at 5.9 nM on TRKA and 4.2 nM against TRKA(G667C).

For the compound `C[C@H]1Nc2ccn3ncc(c3n2)C(=O)NCC[C@]2(C)Cc3cc(F)cc1c3O2` [Example 21, (3R,11S)-6-fluoro-3,11-dimethyl-10-oxa-2,14,18,1 9,22-pentaazapentacyclo[14.5.2.1^8,11.0^4,9.0^19,23]tetra cosa-1(22),4,6,8,16(23),17,20-heptaen-15-one], the results for the IC50 at TRKA and on TRKA(G667C) were 18.5 nM and 24.6 nM, respectively.

Take `C[C@H]1Nc2ccn3ncc(c3n2)C(=O)NC[C@]2(C)COc3cc(F)cc1c3O2` [Example 23, (2R,14R)-19-fluoro-2,14-dimethyl-16,22-dioxa-3,5 ,7,8,12-pentaazapentacyclo[12.6.2.2^4,7.0^6,10.0^17,21]te tracosa-1(20),4,6(10),8,17(21),18,23-heptaen-11-one]: the IC50 on TRKA worked out at 4.83 nM; against TRKA(G595R) it was 15.3 nM.

For the compound `C[C@H]1Nc2ccc3ncc(n3n2)C(=O)NC[C@@]2(C)Cc3cc(F)cc1c3O2` [Example 26, (3R,11R)-6-fluoro-3,11-dimethyl-10-oxa-2,13,17,21,22-pentaazapentacyclo[13.5.2.1^8,11.0^4,9.0^18 ,22]tricosa-1(21),4,6,8,15,17,19-heptaen-14-one], the half-inhibitory concentration (IC50) against TRKA amounted to 0.97 nM; against TRKB, 1.3 nM; against TRKC, 0.8 nM; against TRKA(G595R), 8.6 nM; against TRKA(G667C), 15.5 nM.

For the compound `C[C@H]1CNC(=O)c2cnn3ccc(nc23)N[C@H](C)c2cc(F)ccc2O1` [repotrectinib, reference compound], in series [1] (5 mg/kg oral intake vs 1 mg/kg injection, read-out: Bioavailability F(%)), the bioavailability was found to be 13%. In series [1] (5 mg/kg, oral intake), the AUC(0-inf) amounted to 530 ng·h/mL and the half-life is 2.93 h. In addition, the Cmax in series [1] (5 mg/kg, oral intake, read-out: Blood concentration Cmax) stood at 154 ng/mL. In series [1] (setting [2]), the AUC(0-inf) was found to be 824 ng·h/mL and the half-life is 3.9 h. The clearance in series [1] (intravenous, 1 mg/kg, injection, read-out: Clearance rate) turned out to be 20.2 mL/min/kg.
